Results as given in US8778913B2, “Antimicrobial compositions for treating microbial infections” (priority 2006, dated 2014).
Like-named read-outs stand apart in the source and are kept apart here.

What was measured:
S. aureus [1] = assay: Whole blood killing assay; assay type: cell-based, Staphylococcus aureus
Procedure: Bacteria were washed twice in PBS, diluted to an inoculum of 10^4 cfu in 25 μl PBS, and mixed with 75 μl of freshly drawn human or mouse blood in heparinized tubes. The tubes were incubated at 37° C. for 4 h with agitation, at which time dilutions were plated on THA for enumeration of surviving cfu.

NCI-H460 = assay: Growth of human cell line NCI-H460; assay type: cell-based
Procedure: (§1) Inhibition of staphyloxanthin biosynthesis by formula III could represent a purely virulence factor-based therapy for S. aureus infection. […] However, after incubation with 100 μM formula III, the resulting non-pigmented S. aureus were ˜15-fold more susceptible to killing by 1.5% hydrogen peroxide and ˜4-fold less able to survive in freshly isolated human whole blood than were normally pigmented S. aureus treated with PBS control. As expected, formula III had no effect on the growth of three human cell lines (MCF-7, NCI-H460 and SF-268) since there only cholesterol biosynthesis is targeted, and cholesterol is generally abundant in serum (or diet).

[2] = system: staphyloxanthin biosynthesis; assay: S. aureus pigment (staphyloxanthin) formation; assay type: cell-based, Staphylococcus aureus; conditions: for IC50: Staphylococcus aureus
Text: (§2) Wild-type S. aureus strain (Pig1), isolated from the skin of a child with atopic dermatitis. Streptococcus pyogenes strain 5448 is a well-characterized serotype M1T1 clinical isolate. CD1 and C57Bl/6 mice were purchased from Charles River. The gp91^Phos−/− mice were bred at the Veteran's Administration Medical Center, San Diego and maintained on trimethoprim/sulfamethoxazole prophylaxis until 3 d prior to experiments. S. aureus and S. pyogenes were propagated in Todd-Hewitt broth (THB) or on THB agar (Difco, Detroit, Mich.). Unless otherwise indicated, all experiments were performed with bacteria derived from S. aureus 36-48 h stationary phase cultures or S. pyogenes 24 h stationary phase cultures, a point when pigmentation phenotypes were readily apparent.
A series of known SQS inhibitors were tested for inhibition of staphyloxanthin biosynthesis.

MCF-7 = assay: Growth of human cell line MCF-7; assay type: cell-based
Procedure: as §1

S. aureus [3] = assay: In vivo mouse model of S. aureus skin infection
Procedure: Ten to 16 week old CD-1 or gp91^Phox−/− mice were injected subcutaneously in one flank (chosen randomly) with the bacterial test strain, and simultaneously in the opposite flank with a different strain for direct comparison. Bacterial cultures were washed, diluted and resuspended in PBS mixed 1:1 with sterile Cytodex beads (Amersham) at the specified inoculum, following an established protocol for generating localized S. aureus and S. pyogenes subcutaneous infection. Lesion size, as assessed by the maximal length×width of the developing ulcers, was recorded daily. Cumulative lesion size represents the total sum of lesion sizes from all animals in each treatment group on a given day. At day 8 (S. aureus) or day 5 (S. pyogenes), animals were euthanized, skin lesions excised, homogenized in PBS, and plated on THA for quantitative culture.

SF-268 = assay: Growth of human cell line SF-268; assay type: cell-based
Procedure: as §1

S. aureus [4] = assay: Hydrogen peroxide susceptibility assay; assay type: cell-based, Staphylococcus aureus; conditions: after incubation with 100 μM; vs PBS control
Procedure: (§3) Tests for susceptibility to oxidants were performed either in PBS (S. aureus) or THB (S. pyogenes). Hydrogen peroxide (H2O2) was added to 1.5% final concentration, […] bacteria incubated at 37° C. for 1 h, then 1,000 U/ml of catalase (Sigma) added to quench residual H2O2. Dilutions were plated on THA for enumeration of surviving cfu. For the singlet oxygen assay, 10^8 S. aureus or 4×10^8 S. pyogenes were incubated at 37° C. in individual wells of a 24-well culture plate in the presence or absence of 1-6 μg/ml methylene blue and situated exactly 10 cm from a 100-watt light source. Bacterial viability was assessed after 1-3 h by plating dilutions on THA.

S. aureus [5] = assay: Systemic (intraperitoneal) S. aureus challenge in mice; assay type: in vivo, mouse
Procedure: Here cfu counts are measured in the kidneys.
0/6 mice treated with the compound of Formula III had detectable bacteria in either organ.
Given the in vitro abilities of formula III treatment to increase S. aureus susceptibility to oxidants and blood (neutrophil-mediated) clearance, in vivo testing was performed. Under intraperitoneal challenge one group of mice (n=14) was treated with […] b.i.d. (days −1, 0, 1 and 2), and a second group (n=13) with equivalent volume injections of PBS control.

[6] = target: T1, CrtM (dehydrosqualene synthase) (Staphylococcus aureus, UniProt A9JQL9); assay: Recombinant CrtM enzyme inhibition; assay type: biochemical, S. aureus
T1 construct: made in house; host or cells: E. coli
T1 sequence (A9JQL9 1-287): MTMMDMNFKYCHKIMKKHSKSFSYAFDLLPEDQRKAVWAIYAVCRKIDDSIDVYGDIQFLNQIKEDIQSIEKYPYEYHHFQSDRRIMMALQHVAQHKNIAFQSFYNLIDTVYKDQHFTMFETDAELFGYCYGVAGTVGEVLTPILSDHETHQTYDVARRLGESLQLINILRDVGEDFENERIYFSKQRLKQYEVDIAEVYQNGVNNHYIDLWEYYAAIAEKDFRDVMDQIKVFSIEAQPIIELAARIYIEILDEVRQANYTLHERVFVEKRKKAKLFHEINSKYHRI
Procedure: A series of known SQS inhibitors were tested for inhibition of staphyloxanthin biosynthesis. […] Since Formula III (and its analogs) have been advanced through Phase II human clinical trials as cholesterol-lowering agents, the agent is clearly of potential interest as a new lead compound inhibiting staphyloxanthin virulence factor formation in S. aureus.

S. aureus [7] = assay: S. aureus growth inhibition in culture; assay type: cell-based, Staphylococcus aureus
Procedure: The compound of Formula III was prepared as described in Magnin et al., α-Phosphonosulfonic acids: Potent and selective inhibitors of squalene synthase, J. Med. Chem. 39 (1996) 657-660, and tested in S. aureus growth inhibition and in pigment formation.
as §2
Inhibition of staphyloxanthin biosynthesis by formula III could represent a purely virulence factor-based therapy for S. aureus infection. […]

[8] = system: staphyloxanthin biosynthesis; conditions: earlier report; cited from earlier work
S. aureus [9] = assay: Singlet oxygen susceptibility assay; assay type: cell-based, Staphylococcus aureus
Procedure: as §3

Compound: O=P([O-])([O-])C(CCCc1cccc(Oc2ccccc2)c1)S(=O)(=O)[O-].[K+].[K+].[K+] (racemic) [Formula III]
- ED50, whole blood killing of S. aureus (S. aureus [1]; FIG. 8): ~20 µM
- decrease in ability to survive in freshly isolated human whole blood (S. aureus [1]; after incubation with 100 μM, vs PBS control): ~4 fold
- enhancement in whole blood killing of S. aureus (S. aureus [1]; at 40 μM (FIG. 8)): ~3 fold
- effect on growth of human cell line (NCI-H460): no effect
- effect on pigment formation [2]: potent effect
- IC50 ([2]; 48 h, after 2 days at 37° C. with shaking (Table 1 title), read-out: IC50 (concentration for 50% pigment formation)): ~2 µM
- IC50 ([2]; read-out: IC50, inhibition of staphyloxanthin biosynthesis): ~1 µM
- effect on growth of human cell line (MCF-7): no effect
- lesion size (S. aureus [3]; 200 μM (FIG. 9A)): major decrease
- ill effects in mice (S. aureus [3]; 200 μM or 1000 μM): no apparent ill effects
- lesion size (S. aureus [3]; 1000 μM (FIG. 9B)): major decrease
- effect on growth of human cell line (SF-268): no effect
- increase in susceptibility to killing by 1.5% hydrogen peroxide (S. aureus [4]): ~15 fold
- mice with cfus below the detection threshold (kidneys) (S. aureus [5]; 0.5 mg b.i.d. days −1, 0, 1, 2, sacrifice at 72 h): 8/13
- S. aureus bacterial counts in the kidneys vs control group (S. aureus [5]; 0.5 mg b.i.d. days −1, 0, 1, 2, sacrifice at 72 h, P<0.001): significantly lower
- mice with detectable bacteria in the spleen (S. aureus [5]; after 4 days (FIG. 12A)): 0/6
- mice with detectable bacteria in the kidneys (S. aureus [5]; after 4 days (FIG. 12B)): 0/6
- IC50 ([6]; S. aureus enzyme expressed in E. coli): 0.6 µM
- Ki ([6]; corresponding to the IC50): ~0.0015 µM
- effect on cell growth (S. aureus [7]; S. aureus growth inhibition): no detectable effect
- effect on S. aureus growth characteristics or survival in culture (S. aureus [7]; up to 2 mM, through 48 hr): did not affect

Compound: CCCC(C(=O)OCCN(CC)CC)(c1ccccc1)c1ccccc1 [SKF 525-A, 2-diethylaminoethyl-2,2-diphenyl-valerate, reference compound]
- ability of WT S. aureus to survive in human whole blood (S. aureus [1]; WT S. aureus (FIG. 4c)): decrease
- effect on blood survival of ΔCrtM mutant (S. aureus [1]; ΔCrtM mutant control): no significant effects
- pigment formation in S. aureus (previously shown) [8]: inhibit pigment formation
- pigment production in WT S. aureus ([2]; WT strain grown in presence of agent (FIG. 4a)): dose-dependent decrease
- susceptibility to singlet oxygen killing (S. aureus [9]; WT S. aureus (FIG. 4b)): dose-dependent increase
- effect on oxidant susceptibility of ΔCrtM mutant (S. aureus [9]; ΔCrtM mutant control): no significant effects
